# Data taken from US10597388B2, “Pyridazinone herbicides” (FMC CORPORATION, priority 2014, dated 2020).
# Key:
# Format in all cases: in vivo
# [1] = system: oilseed rape (Brassica napus); assay: Test D controlled growth environment herbicide test, pre- and postemergence
# Summary of the method: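 Species sown in silt loam and sprayed preemergence, or grown in peat-based medium to 2–18 cm (1- to 4-leaf stage) and sprayed postemergence, with compounds in non-phytotoxic solvent plus surfactant. Visual injury scored versus controls after 14–21 d in a controlled environment, 0 (no effect) to 100 (complete control).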
# [2] = system: Italian ryegrass (Lolium multiflorum); assay: Test E greenhouse herbicide test, pre- and postemergence; conditions: Postemergence
# Text: (§1) Seeds of plant species selected from corn (Zea mays), soybean (Glycine max), velvetleaf (Abutilon theophrasti), lambsquarters (Chenopodium album), wild poinsettia (Euphorbia heterophylla), pigweed, palmer (palmer pigweed, Amaranthus palmeri), waterhemp (common waterhemp, Amaranthus rudis), surinam grass (Brachiaria decumbens), crabgrass, large (large crabgrass, Digitaria sanguinalis), crabgrass, Brazilian (Brazilian crabgrass, Digitaria horizontalis), panicum, fall (fall panicum, Panicum dichotomiflorum), foxtail, giant (giant foxtail, Setaria faberii), foxtail, green (green foxtail, Setaria viridis), goosegrass (Eleusine indica), johnsongrass (Sorghum halepense), ragweed (common ragweed, Ambrosia elatior), barnyardgrass (Echinochloa crus-galli), sandbur (southem sandbur, Cenchrus echinatus), arrowleaf sida (Sida rhombifolia), Italian ryegrass (Lolium multiflorum), dayflower (Virginia (VA) dayflower, Commelina virginica), field bindweed (Convolvulus arvensis), momingglory (Ipomoea coccinea), nightshade (eastern black nightshade, Solanum ptycanthum), kochia (Kochia scoparia), nutsedge, yellow (yellow nutsedge, Cyperus esculentus), horseweed (Conyza canadensis), and beggarticks (hairy beggarticks, Bidens pilosa), were planted into a silt loam soil and treated preemergence with test chemicals formulated in a non-phytotoxic solvent mixture which included a surfactant.
# (§2) At the same time, plants from these crop and weed species and also waterhemp_RES1, (ALS & Triazine resistant common waterhemp, Amaranthus rudis), and waterhemp_RES2, (ALS & HPPD resistant common waterhemp, Amaranthus rudis) were planted in pots containing Redi-Earth® planting medium (Scotts Company, 14111 Scottslawn Road, Marysville, Ohio 43041) comprising spaghnum peat moss, vermiculite, wetting agent and starter nutrients were treated with postemergence applications of test chemicals formulated in the same manner. Plants ranged in height from 2 to 18 cm for postemergence treatments (1- to 4-leaf stage). Treated plants and controls were maintained in a greenhouse for 14 to 21 d, after which time all species were compared to controls and visually evaluated. Plant response ratings, summarized in Table E, are based on a scale of 0 to 100 where 0 is no effect and 100 is complete control. A dash (-) response means no test result.
# [3] = system: beggarticks (hairy beggarticks, Bidens pilosa); assay: as above; conditions: Postemergence
# Text: as §1, §2
# [4] = system: crabgrass, Brazilian (Brazilian crabgrass, Digitaria horizontalis); assay: as above; conditions: Postemergence
# Text: as §1, §2
# [5] = system: field bindweed (Convolvulus arvensis); assay: as above; conditions: Postemergence
# Text: as §1, §2
# kochia (Kochia scoparia) = assay: as above; conditions: Postemergence
# Text: as §1, §2
# [6] = system: waterhemp (common waterhemp, Amaranthus rudis); assay: as above; conditions: Postemergence
# Text: as §1, §2
# [7] = Postemergence, 31 g ai/ha, scale 0 to 100 (0 no effect, 100 complete control)
# [8] = Postemergence, 125 g ai/ha, visual rating on scale 0 (no effect) to 100 (complete control), 14 to 21 d
# [9] = Postemergence, 250 g ai/ha, scale 0 to 100 (0 no effect, 100 complete control)
# [10] = Preemergence, 62 g ai/ha, scale 0 to 100 (0 no effect, 100 complete control)
# [11] = Preemergence, 125 g ai/ha, scale 0 to 100 (0 no effect, 100 complete control)
# [12] = Preemergence, 250 g ai/ha, scale 0 to 100 (0 no effect, 100 complete control)
# [13] = postemergence, 62 g ai/ha, scale 0 to 100, 0 no effect, 100 complete control
# [14] = 62 g ai/ha, scale 0 to 100 (0 no effect, 100 complete control)
# [15] = 125 g ai/ha, scale 0 to 100 (0 no effect, 100 complete control)
# [16] = 250 g ai/ha, scale 0 to 100 (0 no effect, 100 complete control)
# [17] = 31 g ai/ha, visual, scale 0 no effect to 100 complete control
structure (smiles),measurement,setting,value
Cc1ccc(-c2c(O)c(Br)nn(C)c2=O)c2ccccc12 [Compound 52],Oilseed Rape plant response rating,[1]; [7],0
same,"Plant response rating, Oilseed Rape",[1]; [8],65
same,"Plant response rating, Oilseed Rape",[1]; [9],80
same,"Plant response rating (scale of 0 to 100), Oilseed Rape","[1]; Preemergence, 31 g ai/ha",0
same,"Plant response rating, Oilseed Rape",[1]; [10],0
same,"Plant response rating, Oilseed Rape",[1]; [11],0
same,"Plant response rating, Oilseed Rape",[1]; [12],55
same,"Plant response rating, Oilseed Rape",[1]; [13],5
Cc1ccc2ccc(C)c(-c3c(O)c(C)nn(C)c3=O)c2c1 [Compound 60],Oilseed Rape plant response rating,[1]; [7],65
same,"Plant response rating, Oilseed Rape",[1]; [8],75
same,"Plant response rating, Oilseed Rape",[1]; [9],80
same,"Plant response rating (scale of 0 to 100), Oilseed Rape","[1]; Preemergence, 31 g ai/ha",0
same,"Plant response rating, Oilseed Rape",[1]; [10],15
same,"Plant response rating, Oilseed Rape",[1]; [11],40
same,"Plant response rating, Oilseed Rape",[1]; [12],80
same,"Plant response rating, Oilseed Rape",[1]; [13],70
COc1nn(C)c(=O)c(-c2c(C)ccc3ccccc23)c1OC(=O)OC(C)C [Compound 36],Oilseed Rape plant response rating,[1]; [7],75
same,"Plant response rating, Oilseed Rape",[1]; [8],95
same,"Plant response rating, Oilseed Rape",[1]; [9],100
same,"Plant response rating (scale of 0 to 100), Oilseed Rape","[1]; Preemergence, 31 g ai/ha",0
same,"Plant response rating, Oilseed Rape",[1]; [10],0
same,"Plant response rating, Oilseed Rape",[1]; [11],55
same,"Plant response rating, Oilseed Rape",[1]; [12],65
same,"Plant response rating, Oilseed Rape",[1]; [13],85
CC(=O)Oc1c(Br)nn(C)c(=O)c1-c1c(C)ccc2ccccc12 [Compound 129],Oilseed Rape plant response rating,[1]; [7],5
same,"Plant response rating, Oilseed Rape",[1]; [8],15
same,"Plant response rating, Oilseed Rape",[1]; [9],70
same,"Plant response rating (scale of 0 to 100), Oilseed Rape","[1]; Preemergence, 31 g ai/ha",0
same,"Plant response rating (scale of 0 to 100), Oilseed Rape","[1]; Preemergence, 62 g ai/ha",15
same,"Plant response rating, Oilseed Rape",[1]; [11],55
same,"Plant response rating, Oilseed Rape",[1]; [12],100
same,"Plant response rating, Oilseed Rape",[1]; [13],5
COc1nn(C)c(=O)c(-c2c(C)sc3ccc(Cl)cc23)c1O [Compound 100],"Plant response rating, Ryegrass, Italian",[2]; [14],60
same,"Plant response rating, Ryegrass, Italian",[2]; [15],70
same,"Plant response rating, Ryegrass, Italian",[2]; [16],85
same,"Plant response rating, Ryegrass, Italian",[2]; [17],50
same,"Plant response rating, Beggarticks",[3]; [14],80
same,"Plant response rating, Beggarticks",[3]; [15],90
same,"Plant response rating, Beggarticks",[3]; [16],100
same,"Plant response rating, Beggarticks",[3]; [17],75
same,"Plant response rating, Crabgrass, Brazil",[4]; [14],50
same,"Plant response rating, Crabgrass, Brazil",[4]; [15],40
same,"Plant response rating, Crabgrass, Brazil",[4]; [16],50
same,"Plant response rating, Crabgrass, Brazil",[4]; [17],25
same,"Plant response rating, Field Bindweed",[5]; [14],80
same,"Plant response rating, Field Bindweed",[5]; [15],90
same,"Plant response rating, Field Bindweed",[5]; [16],95
same,"Plant response rating, Field Bindweed",[5]; [17],75
same,"Plant response rating, Kochia",kochia (Kochia scoparia); [14],80
same,"Plant response rating, Kochia",kochia (Kochia scoparia); [15],80
same,"Plant response rating, Kochia",kochia (Kochia scoparia); [16],100
same,"Plant response rating, Kochia",kochia (Kochia scoparia); [17],60
same,"Plant response rating, Waterhemp",[6]; [16],90
same,"Plant response rating, Waterhemp",[6]; [17],80
CCOC(=O)Oc1c(C)nn(C)c(=O)c1-c1c(C)ccc2ccccc12 [Compound 73],Oilseed Rape plant response rating,[1]; [7],65
same,"Plant response rating, Oilseed Rape",[1]; [8],75
same,"Plant response rating, Oilseed Rape",[1]; [9],95
same,"Plant response rating (scale of 0 to 100), Oilseed Rape","[1]; Preemergence, 31 g ai/ha",0
same,"Plant response rating, Oilseed Rape",[1]; [10],5
same,"Plant response rating, Oilseed Rape",[1]; [11],0
same,"Plant response rating, Oilseed Rape",[1]; [12],70
same,"Plant response rating, Oilseed Rape",[1]; [13],70
Cc1nn(C)c(=O)c(-c2c(C)sc3ccc(Cl)cc23)c1O [Compound 104],Oilseed Rape plant response rating,[1]; [7],70
same,"Plant response rating, Oilseed Rape",[1]; [8],90
same,"Plant response rating, Oilseed Rape",[1]; [9],95
same,"Plant response rating (scale of 0 to 100), Oilseed Rape","[1]; Preemergence, 31 g ai/ha",15
same,"Plant response rating (scale of 0 to 100), Oilseed Rape","[1]; Preemergence, 62 g ai/ha",20
same,"Plant response rating, Oilseed Rape",[1]; [11],55
same,"Plant response rating, Oilseed Rape",[1]; [12],55
same,"Plant response rating, Oilseed Rape",[1]; [13],75
Cc1cc(C)c2sc(C)c(-c3c(OC(=O)OC(C)C)c(C)nn(C)c3=O)c2c1 [Compound 67],Oilseed Rape plant response rating,[1]; [7],70
same,"Plant response rating, Oilseed Rape",[1]; [8],85
same,"Plant response rating, Oilseed Rape",[1]; [9],90
same,"Plant response rating (scale of 0 to 100), Oilseed Rape","[1]; Preemergence, 31 g ai/ha",10
same,"Plant response rating, Oilseed Rape",[1]; [10],20
same,"Plant response rating, Oilseed Rape",[1]; [11],25
same,"Plant response rating, Oilseed Rape",[1]; [12],25
same,"Plant response rating, Oilseed Rape",[1]; [13],80
COc1nn(C)c(=O)c(-c2c(C)ccc3ccccc23)c1O [Compound 54],Oilseed Rape plant response rating,[1]; [7],75
same,"Plant response rating, Oilseed Rape",[1]; [8],100
same,"Plant response rating, Oilseed Rape",[1]; [9],100
same,"Plant response rating (scale of 0 to 100), Oilseed Rape","[1]; Preemergence, 31 g ai/ha",15
same,"Plant response rating, Oilseed Rape",[1]; [10],50
same,"Plant response rating, Oilseed Rape",[1]; [11],85
same,"Plant response rating, Oilseed Rape",[1]; [12],100
same,"Plant response rating, Oilseed Rape",[1]; [13],95
CSCC(=O)Oc1c(C)nn(C)c(=O)c1-c1cccc2ccccc12 [Compound 171],"Plant response rating, Ryegrass, Italian",[2]; [14],75
same,"Plant response rating, Ryegrass, Italian",[2]; [15],85
same,"Plant response rating, Ryegrass, Italian",[2]; [16],90
same,"Plant response rating, Ryegrass, Italian",[2]; [17],65
same,"Plant response rating, Beggarticks",[3]; [14],95
same,"Plant response rating, Beggarticks",[3]; [15],100
same,"Plant response rating, Beggarticks",[3]; [16],100
same,"Plant response rating, Beggarticks",[3]; [17],80
same,"Plant response rating, Crabgrass, Brazil",[4]; [14],50
same,"Plant response rating, Crabgrass, Brazil",[4]; [15],50
same,"Plant response rating, Crabgrass, Brazil",[4]; [16],60
same,"Plant response rating, Crabgrass, Brazil",[4]; [17],40
same,"Plant response rating, Field Bindweed",[5]; [14],85
same,"Plant response rating, Field Bindweed",[5]; [15],100
same,"Plant response rating, Field Bindweed",[5]; [16],100
same,"Plant response rating, Field Bindweed",[5]; [17],70
same,"Plant response rating, Kochia",kochia (Kochia scoparia); [14],95
same,"Plant response rating, Kochia",kochia (Kochia scoparia); [15],100
same,"Plant response rating, Kochia",kochia (Kochia scoparia); [16],100
same,"Plant response rating, Kochia",kochia (Kochia scoparia); [17],90
same,"Plant response rating, Waterhemp",[6]; [15],85
same,"Plant response rating, Waterhemp",[6]; [16],90
same,"Plant response rating, Waterhemp",[6]; [17],80
